Measured values reported in patent US8470607B2, “Inhibition of angiogenesis” (Morphotek, Inc., priority 2008, dated 2013).

System: VEGF-stimulated angiogenesis
Test: CAM assay of VEGF-stimulated angiogenesis: intravenous TM-601, comparison and combination with Avastin and Lucentis
Format: in vivo, chick
Conditions: for relative potency of inhibition of VEGF-stimulated angiogenesis, molar basis: TM-601, Avastin and Lucentis compared on a molar basis
Experimental: The CAM assay was performed using two different methods, depending on the contract laboratory where it was performed. At one contract laboratory, fertilized chick eggs were incubated at 37° C. with 55% humidity. Ten days after fertilization, a small hole was punctured with a hypodermic needle in the area of the shell concealing the air sac. A second hole was punctured in the shell on the broadside of the egg directly over an avascular portion of the embryonic membrane. A false air sac was created beneath the second hold by the application of negative pressure to the first hole, which caused the membrane to separate from the shell. A window approximately 1.0 cm^2 in area was cut in the shell over the dropped CAM with the use of a small grinding wheel, allowing direct access to the underlying CAM. Filter disks were soaked in 3 mg/mL rtisone acetate and subsequently air dried under sterile conditions. […] Sterile filter disks with VEGF at 2 μg/mL were placed on the growing CAMs. […] CAMs were harvested on the 3rd day of stimulation. The CAM tissue directly beneath the filter disk was removed from the embryos and tissues were washed three times with PBS. Blood vessel branch points in the 5 m filter disk area were counted at 30× magnification as a quantitative indicator of vascular sprouting in response to the pro-angiogenic compounds. Each egg was analyzed by two different operators and the average reading was reported. The following equation was used to calculate the mean percent angiogenesis inhibition with VEGF-stimulation:
At the second contract laboratory, the CAM assay was performed as follows. Fertilized chicken eggs were incubated at 37.5° C. in a humidified egg incubator with forced air circulation. […] On embryonic day 7, the CAM membranes were examined and quantitatively analyzed for new blood vessel formation after injection of dyed non-fat dry milk solution. The treatment effects on angiogenesis were evaluated by determining vascular density indexed (VDI) on CAMs only with viable chicken embryos. […]

Substance | relative potency of inhibition of VEGF-stimulated angiogenesis, molar basis | relative potency of inhibition of VEGF-stimulated angiogenesis, by weight of inhibitor (TM-601, Avastin and Lucentis compared on a mass basis)
bevacizumab [Avastin] | more effective than TM-601 | 
ranabizumab [Lucentis] | more effective than TM-601 | most potent
